Laboratory results published in patent publication US11261201B2 (priority 2018, dated 2022).
Values after ≈ are worked out from the molar mass of the structure shown. Read-outs that look alike come from different tables or passages of the source.

Experiments:
A. baumannii = assay: Gram negative MIC protocol (OD600, LB, 24 h); conditions: Acinetobacter baumannii, read-out: MIC A. baumannii LB Media, A. baumannii, LB media, 24 h, OD600
Method: (§1) Overnight bacterial cultures were grown in LB with no added antibiotics at 37° C. with shaking. A 1:1000 dilution of these cultures into LB was exposed to concentration gradients of compounds in 96-well plates (100 μL per well assay volume). Resulting plates were incubated at 37° C. for 24 h without shaking, and OD600 was measured at the end of the incubation. MICs were determined as the lowest concentrations at which OD600 remained at baseline.

E. coli = assay: Gram negative MIC protocol (OD600, LB, 24 h); conditions: Escherichia coli
Method: as §1

H37RvMA = assay: Tuberculosis Alamar Blue/Resazurin assay (MIC); type: cell-based; conditions: Mycobacterium tuberculosis, H37RV, WT H37Rv MTB; read-out: WT H37Rv MTB Activity
[1] = read-out: MIC E. coli delta-TolC LB Media, E. coli delta-TolC strain, LB media, 24 h, OD600
[2] = read-out: MIC WT E. coli LB Media, wild-type E. coli, LB media, 24 h, OD600

Structure (SMILES)	MIC (A. baumannii)	MIC (E. coli; [1])	MIC (E. coli; [2])	MIC (H37RvMA)
CC(CC1CCCCC1)NCc1ccccc1OCCCN(C)C1CCCC1 (centres unmarked) [B344]	91 µM (≈ 35.2 µg/mL)	91 µM (≈ 35.2 µg/mL)	150 µM (≈ 58 µg/mL)	150 µM (≈ 58 µg/mL)
NS(=O)(=O)c1ccccc1CNCCC1CCCCC1 [B345]	33 µM (≈ 9.78 µg/mL)	20 µM (≈ 5.93 µg/mL)	> 150 µM	> 150 µM
CS(=O)(=O)Cc1ccccc1CNCCC1CCCCC1 [B346]	12 µM (≈ 3.71 µg/mL)	4 µM (≈ 1.24 µg/mL)	> 150 µM	> 150 µM
CC(CC1CCCCC1)NCc1ccccc1OCC(=O)N1CCNC1=O (centres unmarked) [B347]	> 150 µM	4 µM (≈ 1.49 µg/mL)	150 µM (≈ 56 µg/mL)	> 150 µM
Ic1cccc(CNCCC2CCCCC2)c1 [B348]	> 150 µM	> 150 µM	> 150 µM	150 µM (≈ 51.5 µg/mL)
COC(=O)c1cccc(CNCCC2CCCCC2)c1 [B349]	> 150 µM	> 150 µM	> 150 µM	> 150 µM
COCc1cccc(CNCCC2CCCCC2)c1 [B350]	> 150 µM	> 150 µM	> 150 µM	> 150 µM
Clc1cccc(CNCCC2CCCCC2)c1 [B351]	> 150 µM	> 150 µM	> 150 µM	> 150 µM
c1cc(CNCCC2CCCCC2)c2[nH]ccc2c1 [B352]	150 µM (≈ 38.5 µg/mL)	91 µM (≈ 23.3 µg/mL)	91 µM (≈ 23.3 µg/mL)	91 µM (≈ 23.3 µg/mL)
COc1cccc(CNCCC2CCCCC2)c1 [B353]	> 150 µM	> 150 µM	> 150 µM	> 150 µM
c1cc(CNCCC2CCCCC2)c2sccc2c1 [B354]	> 150 µM	150 µM (≈ 41 µg/mL)	> 150 µM	150 µM (≈ 41 µg/mL)
NCc1cccc(CNCCC2CCCCC2)c1 [B355]	> 150 µM	> 150 µM	> 150 µM	> 150 µM
Oc1cccc(CNCCC2CCCCC2)c1 [B356]	> 150 µM	> 150 µM	> 150 µM	> 150 µM
c1cc(CNCCC2CCCCC2)c2cc[nH]c2c1 [B357]	91 µM (≈ 23.3 µg/mL)	20 µM (≈ 5.13 µg/mL)	150 µM (≈ 38.5 µg/mL)	91 µM (≈ 23.3 µg/mL)
CC(C)NC(=O)COc1ccccc1CNC(C)CC1CCCCC1 (centres unmarked) [B358]	> 150 µM	20 µM (≈ 6.93 µg/mL)	> 150 µM	> 150 µM
C#CCNC(=O)COc1ccccc1CNC(C)CC1CCCCC1 (centres unmarked) [B359]	150 µM (≈ 51.4 µg/mL)	12 µM (≈ 4.11 µg/mL)	> 150 µM	> 150 µM
c1ccc(CNCCC2CCCCN2)cc1 (centres unmarked) [B360]	> 150 µM	> 150 µM	> 150 µM	> 150 µM
CC(O)COc1ccccc1CNC(C)CC1CCCCC1 (centres unmarked) [B361]	91 µM (≈ 27.8 µg/mL)	4 µM (≈ 1.22 µg/mL)	91 µM (≈ 27.8 µg/mL)	> 150 µM
COC(=O)COc1ccccc1CNC(C)CC1CCCCC1 (centres unmarked) [B362]	150 µM (≈ 47.9 µg/mL)	7 µM (≈ 2.24 µg/mL)	150 µM (≈ 47.9 µg/mL)	> 150 µM
CC(O)CCOc1ccccc1CNC(C)CC1CCCCC1 (centres unmarked) [B363]	150 µM (≈ 47.9 µg/mL)	3 µM (≈ 0.958 µg/mL)	150 µM (≈ 47.9 µg/mL)	> 150 µM
CSCCCOc1ccccc1CNC(C)CC1CCCCC1 (centres unmarked) [B364]	150 µM (≈ 50.3 µg/mL)	3 µM (≈ 1.01 µg/mL)	150 µM (≈ 50.3 µg/mL)	91 µM (≈ 30.5 µg/mL)
CCOC(=O)COCCOc1ccccc1CNC(C)CC1CCCCC1 (centres unmarked) [B365]	> 150 µM	5 µM (≈ 1.89 µg/mL)	> 150 µM	> 150 µM

Structure (SMILES)	MIC (A. baumannii)	MIC (E. coli; [1])	MIC (E. coli; [2])	MIC (H37RvMA)
Nc1cccc(CNCCC2CCCCC2)c1 [B366]	> 150 µM	150 µM (≈ 34.9 µg/mL)	150 µM (≈ 34.9 µg/mL)	> 150 µM
CC(CC1CCCCC1)NCc1ccccc1OCC1CN(C2CC2)C(=O)O1 (centres unmarked) [B367]	150 µM (≈ 58 µg/mL)	5 µM (≈ 1.93 µg/mL)	150 µM (≈ 58 µg/mL)	> 150 µM
CCN1CC(COc2ccccc2CNCCC2=CCCCC2)OC1=O (centres unmarked) [B368]	> 150 µM	20 µM (≈ 7.17 µg/mL)	> 150 µM	> 150 µM
CCN1CC(COc2ccccc2CNC(C)CC2CCCCC2)OC1=O (centres unmarked) [B369]	> 150 µM	3 µM (≈ 1.12 µg/mL)	> 150 µM	> 150 µM
O=C1OC(COc2ccccc2CNCCC2=CCCCC2)CN1C1CC1 (centres unmarked) [B370]	> 150 µM	12 µM (≈ 4.45 µg/mL)	> 150 µM	> 150 µM
CN1CC(COc2ccccc2CNCCC2=CCCCC2)OC1=O (centres unmarked) [B371]	> 150 µM	33 µM (≈ 11.4 µg/mL)	> 150 µM	> 150 µM
CC(CC1CCCCC1)NCc1ccccc1OCC1CN(C)C(=O)O1 (centres unmarked) [B372]	> 150 µM	5 µM (≈ 1.8 µg/mL)	150 µM (≈ 54.1 µg/mL)	> 150 µM
NC(=O)Nc1ccccc1CNCCC1CCCCC1 [B373]	> 150 µM	150 µM (≈ 41.3 µg/mL)	> 150 µM	> 150 µM
c1cc(CNCCC2CCCCC2)c2c(c1)OCO2 [B374]	> 150 µM	> 150 µM	> 150 µM	150 µM (≈ 39.2 µg/mL)
OCc1cccc(CNCCC2CCCCC2)c1 [B375]	> 150 µM	> 150 µM	> 150 µM	> 150 µM
OB(O)Cc1ccccc1CNCCC1CCCCC1 [B376, 2-((2-cyclohexylethylamino)methyl)benzylboronic acid]	> 150 µM	91 µM (≈ 25 µg/mL)	150 µM (≈ 41.3 µg/mL)	> 150 µM
CC(CC1CCCCC1)NCc1ccccc1OCC1CNC(=O)O1 (centres unmarked) [B377]	150 µM (≈ 52 µg/mL)	2.3 µM (≈ 0.797 µg/mL)	75 µM (≈ 26 µg/mL)	> 150 µM
CC(CC1CCCCC1)NCc1ccccc1CCCO (centres unmarked) [B378, 3-(2-((1-cyclohexylpropan-2-ylamino)methyl)phenyl)propan-1-ol]	150 µM (≈ 43.4 µg/mL)	7 µM (≈ 2.03 µg/mL)	91 µM (≈ 26.3 µg/mL)	150 µM (≈ 43.4 µg/mL)
NS(=O)(=O)Cc1ccccc1CNCCC1CCCCC1 [B380]	> 150 µM	12 µM (≈ 3.73 µg/mL)	33 µM (≈ 10.2 µg/mL)	> 150 µM
CC(CC1CCCCC1)NCc1ccccc1OCc1ccccc1Br (centres unmarked) [B381]	55 µM (≈ 22.9 µg/mL)	4 µM (≈ 1.67 µg/mL)	55 µM (≈ 22.9 µg/mL)	20.2 µM (≈ 8.41 µg/mL)
CC(CC1CCCCC1)NCc1ccccc1OCc1ccccc1Cl (centres unmarked) [B382]	55 µM (≈ 20.5 µg/mL)	3 µM (≈ 1.12 µg/mL)	55 µM (≈ 20.5 µg/mL)	12.2 µM (≈ 4.54 µg/mL)
CC(CC1CCCCC1)NCc1ccccc1OCc1cccc(F)c1 (centres unmarked) [B383]	91 µM (≈ 32.4 µg/mL)	2 µM (≈ 0.711 µg/mL)	55 µM (≈ 19.6 µg/mL)	12.2 µM (≈ 4.34 µg/mL)
Cc1ccccc1COc1ccccc1CNC(C)CC1CCCCC1 (centres unmarked) [B384]	55 µM (≈ 19.3 µg/mL)	4 µM (≈ 1.41 µg/mL)	91 µM (≈ 32 µg/mL)	20.2 µM (≈ 7.1 µg/mL)
CC(CC1CCCCC1)NCc1ccccc1OC1CCC1 (centres unmarked) [B385, N-(2-cyclobutoxybenzyl)-1-cyclohexylpropan-2-amine]	150 µM (≈ 45.2 µg/mL)	2 µM (≈ 0.603 µg/mL)	91 µM (≈ 27.4 µg/mL)	90.9 µM (≈ 27.4 µg/mL)
CC(CC1CCCCC1)NCc1ccccc1OCC1CC2CCC1C2 (centres unmarked) [B386, N-(2-(bicyclo[2.2.1]heptan-2-ylmethoxy)benzyl)-1-cyclohexylpropan-2-amine]	55 µM (≈ 19.6 µg/mL)	5 µM (≈ 1.78 µg/mL)	> 150 µM	20.2 µM (≈ 7.18 µg/mL)
CC(CC1CCCCC1)NCc1ccccc1OC1CCCCC1 (centres unmarked) [B387, 1-cyclohexyl-N-(2-(cyclohexyloxy)benzyl)propan-2-amine]	55 µM (≈ 18.1 µg/mL)	3 µM (≈ 0.989 µg/mL)	91 µM (≈ 30 µg/mL)	33.4 µM (≈ 11 µg/mL)
CC(CC1CCCCC1)NCc1ccccc1OCc1ccccc1I (centres unmarked) [B388, 1-cyclohexyl-N-(2-((2-iodobenzyl)oxy)benzyl)propan-2-amine]	33 µM (≈ 15.3 µg/mL)	7 µM (≈ 3.24 µg/mL)	150 µM (≈ 69.5 µg/mL)	33.4 µM (≈ 15.5 µg/mL)
